# Laboratory results from patent US11702409B2, “Pyrazolyl derivatives useful as anti-cancer agents” (NOVARTIS AG, priority 2019, dated 2023).
# Target: KRasG12C (M1-K169, biotinylated on the N-terminus) (Homo sapiens (Human), UniProt P01116, G12C)
# Experiment: Covalent competition assay (scintillation proximity assay, competition with radiolabeled covalent probe Compound B)
# Assay type: binding
# Conditions: in vitro KRASG12C activity; 10 nM KRasG12C:GDP, 25 nM radio-ligand and 475 nM unlabelled ligand, incubated 2 hours; read-out: Covalent Competition Assay IC50
# Method: The cells were lysed by 4 passages through an Avestin Emulsiflex at about 20000 psi and insoluble debris removed by centrifugation and filtered through a 0.45 μm Durapore membrane (Millipore). […] The protein in the flow through was subjected to a final polishing step on a HiLoad 16/60 Superdex 200 prep grade size-exclusion column pre-equilibrated with SEC-buffer (20 mM HEPES pH 7.4, 150 mM NaCl, 5 mM MgCl2, 1 μM GDP).
# A scintillation proximity assay (SPA) was used to determine the potency of the compounds. This assay measures the ability of the test compound to compete with the radiolabeled covalent probe for binding to and covalently modify KRASG12C.
# A serial dilution of the compounds to be tested is mixed with a fixed concentration of the radiolabeled covalent probe before incubation with KRASG12C:GDP as described below.
# The reaction was started by addition of KRasG12C (M1-K169, biotinylated on the N-terminus) to the compounds and incubated for 2 hours with continuous agitation allowing for full modification of KRasG12C with probe or test compounds. […] The assay buffer contained 20 mM Tris-HCl pH 7.5 (Invitrogen), 150 mM NaCl (Sigma Aldrich), 0.1 mM MgCl2 (Sigma Aldrich), and 0.01% Tween-20 (Sigma Aldrich).
# Evaluation was carried out using assay data analysis software (such as the standard Novartis in-house Helios software application, Novartis Institutes for BioMedical Research, unpublished) using the methods described in Formenko et al., Robust Regression for high-throughput screening.
# Evaluation can also be carried out using commercially available software which is designed to derive IC50 values using 4-parameter fits (e.g. GraphPad Prism, XL fit).
row,IC50,SMILES
1,251 nM,"C=CC(=O)N1CC2(CC(n3nc(-c4cccnc4)c(-c4c(Cl)c(C)cc5[nH]ncc45)c3C)C2)C1 (single isomer, unassigned) [Example 27a]"
2,19900 nM,"C=CC(=O)N1CC2(CC(n3nc(-c4cccnc4)c(-c4c(Cl)c(C)cc5[nH]ncc45)c3C)C2)C1 (single isomer, unassigned) [Example 27b]"
3,1280 nM,"C=CC(=O)N1CC2(CC(n3nc(-c4ccnc(C)c4)c(-c4c(Cl)ccc5[nH]ncc45)c3C)C2)C1 (single isomer, unassigned) [Example 28a]"
4,> 50000 nM,"C=CC(=O)N1CC2(CC(n3nc(-c4ccnc(C)c4)c(-c4c(Cl)ccc5[nH]ncc45)c3C)C2)C1 (single isomer, unassigned) [Example 28b]"
5,220 nM,"C=CC(=O)N1CC2(CC(n3nc(-c4cccc5c4cnn5C)c(-c4c(Cl)c(C)cc5[nH]ncc45)c3C)C2)C1 (single isomer, unassigned) [Example 29a]"
6,15000 nM,"C=CC(=O)N1CC2(CC(n3nc(-c4cccc5c4cnn5C)c(-c4c(Cl)c(C)cc5[nH]ncc45)c3C)C2)C1 (single isomer, unassigned) [Example 29b]"
7,103 nM,"C=CC(=O)N1CC2(CC(n3nc(-c4ccc5c(c4)ncn5C)c(-c4c(Cl)c(C)cc5[nH]ncc45)c3C)C2)C1 (single isomer, unassigned) [Example 30a]"
8,> 50000 nM,"C=CC(=O)N1CC2(CC(n3nc(-c4ccc5c(c4)ncn5C)c(-c4c(Cl)c(C)cc5[nH]ncc45)c3C)C2)C1 (single isomer, unassigned) [Example 30b]"
9,13900 nM,"C=CC(=O)N1CC2(CC(n3nc(-c4ccc5c(c4)N(C)CCO5)c(-c4c(Cl)c(C)cc5[nH]ncc45)c3C)C2)C1 (single isomer, unassigned) [Example 31a]"
10,374 nM,"C=CC(=O)N1CC2(CC(n3nc(-c4ccc5c(c4)N(C)CCO5)c(-c4c(Cl)c(C)cc5[nH]ncc45)c3C)C2)C1 (single isomer, unassigned) [Example 31b]"
11,871 nM,"C=CC(=O)N1CC2(CC(n3nc(-c4ccc5c(c4)N(C)CC(=O)O5)c(-c4c(Cl)c(C)cc5[nH]ncc45)c3C)C2)C1 (single isomer, unassigned) [Example 32a]"
12,> 50000 nM,"C=CC(=O)N1CC2(CC(n3nc(-c4ccc5c(c4)N(C)CC(=O)O5)c(-c4c(Cl)c(C)cc5[nH]ncc45)c3C)C2)C1 (single isomer, unassigned) [Example 32b]"
13,253 nM,"C=CC(=O)N1CC2(CC(n3nc(-c4ccn5ccnc5c4)c(-c4c(Cl)c(C)cc5[nH]ncc45)c3C)C2)C1 (single isomer, unassigned) [Example 33a]"
14,> 50000 nM,"C=CC(=O)N1CC2(CC(n3nc(-c4ccn5ccnc5c4)c(-c4c(Cl)c(C)cc5[nH]ncc45)c3C)C2)C1 (single isomer, unassigned) [Example 33b]"
15,827 nM,"C=CC(=O)N1CC2(CC(n3nc(-c4cnn5c4CCC5)c(-c4c(Cl)c(C)cc5[nH]ncc45)c3C)C2)C1 (single isomer, unassigned) [Example 34a]"
16,> 50000 nM,"C=CC(=O)N1CC2(CC(n3nc(-c4cnn5c4CCC5)c(-c4c(Cl)c(C)cc5[nH]ncc45)c3C)C2)C1 (single isomer, unassigned) [Example 34b]"
17,516 nM,"C=CC(=O)N1CC2(CC(n3nc(-c4cnn(S(=O)(=O)C5CC5)c4)c(-c4c(Cl)c(C)cc5[nH]ncc45)c3C)C2)C1 (single isomer, unassigned) [Example 36a]"
18,> 50000 nM,"C=CC(=O)N1CC2(CC(n3nc(-c4cnn(S(=O)(=O)C5CC5)c4)c(-c4c(Cl)c(C)cc5[nH]ncc45)c3C)C2)C1 (single isomer, unassigned) [Example 36b]"
19,112 nM,"C=CC(=O)N1CC2(CC(n3nc(-c4cnc5c(cnn5C)c4)c(-c4c(Cl)c(C)cc5[nH]ncc45)c3C)C2)C1 (single isomer, unassigned) [Example 37a]"

row,IC50,SMILES
1,> 50000 nM,"C=CC(=O)N1CC2(CC(n3nc(-c4cnc5c(cnn5C)c4)c(-c4c(Cl)c(C)cc5[nH]ncc45)c3C)C2)C1 (single isomer, unassigned) [Example 37b]"
2,487 nM,"C=CC(=O)N1CC2(CC(n3nc(-c4cnc5c(c4)ncn5C)c(-c4c(Cl)c(C)cc5[nH]ncc45)c3C)C2)C1 (single isomer, unassigned) [Example 38a]"
3,> 50000 nM,"C=CC(=O)N1CC2(CC(n3nc(-c4cnc5c(c4)ncn5C)c(-c4c(Cl)c(C)cc5[nH]ncc45)c3C)C2)C1 (single isomer, unassigned) [Example 38b]"
4,32 nM,"C=CC(=O)N1CC2(CC(n3nc(-c4ccc(COCCOC)cc4)c(-c4c(Cl)c(C)cc5[nH]ncc45)c3C)C2)C1 (single isomer, unassigned) [Example 39a]"
5,> 5000 nM,"C=CC(=O)N1CC2(CC(n3nc(-c4ccc(COCCOC)cc4)c(-c4c(Cl)c(C)cc5[nH]ncc45)c3C)C2)C1 (single isomer, unassigned) [Example 39b]"
6,99 nM,"C=CC(=O)N1CC2(CC(n3nc(-c4ccc5nc(NC)ncc5c4)c(-c4c(Cl)c(C)cc5[nH]ncc45)c3C)C2)C1 (single isomer, unassigned) [Example 40a]"
7,> 50000 nM,"C=CC(=O)N1CC2(CC(n3nc(-c4ccc5nc(NC)ncc5c4)c(-c4c(Cl)c(C)cc5[nH]ncc45)c3C)C2)C1 (single isomer, unassigned) [Example 40b]"
8,11 nM,"C=CC(=O)N1CC2(CC(n3nc(-c4ccc5nn(CCOC)cc5c4)c(-c4c(Cl)c(C)cc5[nH]ncc45)c3C)C2)C1 (single isomer, unassigned) [Example 41a, 1-(6-{(4M)-4-(5-Chloro-6-methyl-1H-indazol-4-yl)-3-[2-(2-methoxyethyl)-2H-indazol-5-yl]-5-methyl-1H-pyrazol-1-yl}-2-azaspiro[3.3]heptan-2-yl)prop-2-en-1-one]"
9,941 nM,"C=CC(=O)N1CC2(CC(n3nc(-c4ccc5nn(CCOC)cc5c4)c(-c4c(Cl)c(C)cc5[nH]ncc45)c3C)C2)C1 (single isomer, unassigned) [Example 41b]"
10,12 nM,"C=CC(=O)N1CC2(CC(n3nc(-c4ccc5nn(CC(C)(C)O)cc5c4)c(-c4c(Cl)c(C)cc5[nH]ncc45)c3C)C2)C1 (single isomer, unassigned) [Example 42a, 1-(6-{(4M)-4-(5-Chloro-6-methyl-1H-indazol-4-yl)-3-[2-(2-hydroxy-2-methylpropyl)-2H-indazol-5-yl]-5-methyl-1H-pyrazol-1-yl}-2-azaspiro[3.3]heptan-2-yl)prop-2-en-1-one]"
11,1200 nM,"C=CC(=O)N1CC2(CC(n3nc(-c4ccc5nn(CC(C)(C)O)cc5c4)c(-c4c(Cl)c(C)cc5[nH]ncc45)c3C)C2)C1 (single isomer, unassigned) [Example 42b]"
12,10 nM,"C=CC(=O)N1CC2(CC(n3nc(-c4ccc5nn(CCOCCOC)cc5c4)c(-c4c(Cl)c(C)cc5[nH]ncc45)c3C)C2)C1 (single isomer, unassigned) [Example 43a, 1-{6-[(4M)-4-(5-Chloro-6-methyl-1H-indazol-4-yl)-3-{2-[2-(2-methoxyethoxy)ethyl]-2H-indazol-5-yl}-5-methyl-1H-pyrazol-1-yl]-2-azaspiro[3.3]heptan-2-yl}prop-2-en-1-one]"
13,2900 nM,"C=CC(=O)N1CC2(CC(n3nc(-c4ccc5nn(CCOCCOC)cc5c4)c(-c4c(Cl)c(C)cc5[nH]ncc45)c3C)C2)C1 (single isomer, unassigned) [Example 43b]"
14,19 nM,"C=CC(=O)N1CC2(CC(n3nc(-c4ccc5c(c4)CCN5CCOC)c(-c4c(Cl)c(C)cc5[nH]ncc45)c3C)C2)C1 (single isomer, unassigned) [Example 44a]"
15,> 5000 nM,"C=CC(=O)N1CC2(CC(n3nc(-c4ccc5c(c4)CCN5CCOC)c(-c4c(Cl)c(C)cc5[nH]ncc45)c3C)C2)C1 (single isomer, unassigned) [Example 44b]"
16,235 nM,"C=CC(=O)N1CC2(CC(n3nc(-c4ccnn4CC4CC4)c(-c4c(Cl)c(C)cc5[nH]ncc45)c3C)C2)C1 (single isomer, unassigned) [Example 45a, 1-(6-(4-(5-chloro-6-methyl-1H-indazol-4-yl)-2′-(cyclopropylmethyl)-5-methyl-1H,2′H-[3,3′-bipyrazol]-1-yl)-2-azaspiro[3.3]heptan-2-yl)prop-2-en-1-one]"
17,> 50000 nM,"C=CC(=O)N1CC2(CC(n3nc(-c4ccnn4CC4CC4)c(-c4c(Cl)c(C)cc5[nH]ncc45)c3C)C2)C1 (single isomer, unassigned) [Example 45b, 1-(6-(4-(5-chloro-6-methyl-1H-indazol-4-yl)-2′-(cyclopropylmethyl)-5-methyl-1H,2′H-[3,3′-bipyrazol]-1-yl)-2-azaspiro[3.3]heptan-2-yl)prop-2-en-1-one]"
18,423 nM,"C=CC(=O)N1CC2(CC(n3nc(-c4ccccn4)c(-c4c(Cl)c(C)cc5[nH]ncc45)c3C)C2)C1 (single isomer, unassigned) [Example 46a, 1-(6-(4-(5-chloro-6-methyl-1H-indazol-4-yl)-5-methyl-3-(pyridin-2-yl)-1H-pyrazol-1-yl)-2-azaspiro[3.3]heptan-2-yl)prop-2-en-1-one]"
